In US11332459B2 (TEIJIN PHARMA LIMITED, priority 2017, dated 2022):

Molecular target: T1, human TRPC6 (Homo sapiens, UniProt Q9Y210)
T1 construct: expressed in transfected cells
T1 sequence (Q9Y210 1-931): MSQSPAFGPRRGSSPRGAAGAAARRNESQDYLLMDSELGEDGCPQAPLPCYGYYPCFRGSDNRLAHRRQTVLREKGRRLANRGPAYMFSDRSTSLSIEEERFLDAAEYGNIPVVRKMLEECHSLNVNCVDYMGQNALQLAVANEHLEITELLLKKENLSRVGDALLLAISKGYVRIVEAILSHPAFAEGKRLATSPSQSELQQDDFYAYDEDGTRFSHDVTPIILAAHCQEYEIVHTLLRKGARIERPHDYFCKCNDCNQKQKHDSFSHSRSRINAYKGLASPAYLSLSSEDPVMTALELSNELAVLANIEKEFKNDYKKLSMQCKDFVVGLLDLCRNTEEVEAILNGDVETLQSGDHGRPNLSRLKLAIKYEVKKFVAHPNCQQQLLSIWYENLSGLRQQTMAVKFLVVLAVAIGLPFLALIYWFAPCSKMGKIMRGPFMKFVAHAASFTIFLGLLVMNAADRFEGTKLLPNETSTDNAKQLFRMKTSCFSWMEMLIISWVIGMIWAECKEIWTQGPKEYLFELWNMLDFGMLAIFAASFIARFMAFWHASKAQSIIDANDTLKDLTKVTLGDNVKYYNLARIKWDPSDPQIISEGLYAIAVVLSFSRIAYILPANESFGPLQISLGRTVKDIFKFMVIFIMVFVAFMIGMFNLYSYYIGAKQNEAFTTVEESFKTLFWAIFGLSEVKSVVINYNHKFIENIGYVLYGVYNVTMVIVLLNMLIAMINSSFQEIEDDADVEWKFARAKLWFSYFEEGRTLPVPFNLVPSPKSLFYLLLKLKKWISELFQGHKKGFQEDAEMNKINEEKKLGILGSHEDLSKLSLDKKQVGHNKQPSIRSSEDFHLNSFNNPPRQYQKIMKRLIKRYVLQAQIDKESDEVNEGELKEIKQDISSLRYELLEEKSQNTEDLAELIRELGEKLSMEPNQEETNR
Test: TRPC6 calcium flux assay (FLIPR, OAG-stimulated calcium influx)
Type: cell-based
Settings: HEK293 cells stably transfected with human TRPC6, read-out: hTRPC6 Potency
In short: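 IC50 derived by plotting background-corrected peak fluorescence (180 s window, normalized to OAG-triggered signal vs buffer) against dose. Stable human TRPC6 HEK293 line was dye-loaded, exposed to compound 25 min, then challenged with 50 uM final OAG in 2 mM Ca2+ HEPES buffer pH 7.2, 0.5% DMSO.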

**Q.** Which IC50 does the source give for `N#Cc1cc(Cl)ccc1Cn1c(N2CC[C@@H](F)[C@H](N)C2)nc2cc(F)c(F)cc21` [Example 340, 2-((2-((3R,4R)-3-amino-4-fluoro-1-piperidinyl)-5,6-difluoro-1H-benzimidazol-1-yl)methyl)-5-chlorobenzonitrile] here?
**A.** 0.704 nM

**Q.** How did the IC50 turn out when `N[C@@H]1CN(c2nc3cc(F)c(F)cc3n2Cc2ccc(F)cc2F)CC[C@H]1F` [Example 351, (3R,4R)-1-(1-(2,4-difluorobenzyl)-5,6-difluoro-1H-benzimidazol-2-yl)-4-fluoro-3-piperidinamine] was run?
**A.** 10.3 nM

**Q.** Which IC50 does the source give for `N[C@@H]1CN(c2nc3cc(F)c(F)cc3n2Cc2cccc(C(F)(F)F)c2)CC[C@H]1F` [Example 365, (3R,4R)-1-(5,6-difluoro-1-(3-(trifluoromethyl)benzyl)-1H-benzimidazol-2-yl)-4-fluoro-3-piperidinamine] here?
**A.** 2960 nM

**Q.** Which IC50 does the source give for `N#Cc1ccc(Cn2c(N3CCC(F)(F)[C@H](N)C3)nc3c(Cl)cc(Cl)cc32)nc1` [Example 60, (R)-6-((2-(3-amino-4,4-difluoropiperidin-1-yl)-4,6-dichloro-1H-benzo[d]imidazol-1-yl)methyl)nicotinonitrile] here?
**A.** 0.261 nM

**Q.** How did the IC50 turn out when `N#Cc1ccc(Cn2c(N3CC[C@@](O)(CN)C3)nc3ccccc32)cc1` [Example 176, (R)-4-((2-(3-(aminomethyl)-3-hydroxypyrrolidin-1-yl)-1H-benzo[d]imidazol-1-yl)methyl)benzonitrile 2,2,2-trifluoroacetate] was run?
**A.** 2330 nM

**Q.** With `N[C@@H]1CN(c2nc3ccc(F)cc3n2Cc2ncc(Cl)cn2)CC[C@H]1F` [Example 289, (3R,4R)-1-(1-((5-chloropyrimidin-2-yl)methyl)-6-fluoro-1H-benzo[d]imidazol-2-yl)-4-fluoropiperidin-3-amine] as the compound, how does the IC50 read?
**A.** 73.5 nM

**Q.** Which IC50 does the source give for `N#CC1CN(C(=O)Cn2c(N3CC[C@@H](F)[C@H](N)C3)nc3cc(F)c(F)cc32)CCO1` (mixture of isomers) [Example 627, 4-(2-(2-((3R,4R)-3-amino-4-fluoropiperidin-1-yl)-5,6-difluoro-1H-benzo[d]imidazol-1-yl)acetyl)morpholine-2-carbonitrile] here?
**A.** 122 nM

**Q.** For `N#Cc1ccc(Cn2c(N3CC[C@@H](F)[C@H](N)C3)nc3cc(Cl)c(OC(F)(F)F)cc32)nc1` [Example 125, 6-((2-((3R,4R)-3-amino-4-fluoro-1-piperidinyl)-5-chloro-6-(trifluoromethoxy)-1H-benzimidazol-1-yl)methyl)-3-pyridinecarbonitrile], which IC50 is on record?
**A.** 0.389 nM

**Q.** With `N[C@@H]1CN(c2nc3cc(F)c(F)cc3n2CC(=O)N2CCC(C(=O)N3CCCCC3)CC2)CC[C@H]1F` [Example 536, 2-(2-((3R,4R)-3-amino-4-fluoropiperidin-1-yl)-5,6-difluoro-1H-benzo[d]imidazol-1-yl)-1-(4-(piperidine-1-carbonyl)piperidin-1-yl)ethan-1-one] as the compound, how does the IC50 read?
**A.** > 3750 nM

**Q.** Which IC50 does the source give for `C[C@H](c1ccc(Cl)cc1Cl)n1c(N2CC[C@@H](F)[C@H](N)C2)nc2cc(F)c(F)cc21` [Example 322, (3R,4R)-1-(1-((1R)-1-(2,4-dichlorophenyl)ethyl)-5,6-difluoro-1H-benzimidazol-2-yl)-4-fluoro-3-piperidinamine] here?
**A.** 1450 nM

**Q.** For `CNC(=O)C1CN(C(=O)Cn2c(N3CC[C@@H](F)[C@H](N)C3)nc3cc(F)c(F)cc32)CCO1` (stereo partly drawn) [Example 644, 4-(2-(2-((3R,4R)-3-amino-4-fluoropiperidin-1-yl)-5,6-difluoro-1H-benzo[d]imidazol-1-yl)acetyl)-N-methylmorpholine-2-carboxamide], which IC50 is on record?
**A.** 1910 nM

**Q.** With `C[C@@H](c1ccc(C#N)cn1)n1c(N2CC[C@H]3OCCN[C@@H]3C2)nc2cc(F)cc(F)c21` [Example 274, 6-((1S)-1-(5,7-difluoro-2-((4aR,8aR)-hexahydro-2H-pyrido[4,3-b][1,4]oxazin-6(5H)-yl)-1H-benzimidazol-1-yl)ethyl)-3-pyridinecarbonitrile] as the compound, how does the IC50 read?
**A.** 0.328 nM

**Q.** `N#Cc1ccc(Cn2c(N3CC[C@@H]4CCN[C@H]4C3)nc3ccccc32)nc1` [Example 23, 6-((2-((3aS,7aR)-hexahydro-1H-pyrrolo[2,3-c]pyridin-6(2H)-yl)-1H-benzo[d]imidazol-1-yl)methyl)nicotinonitrile] was tested. Which IC50 did it give?
**A.** > 3750 nM

**Q.** For `N[C@@H]1CN(c2nc3cc(F)c(F)cc3n2Cc2ccccc2Cl)CC[C@H]1F` [Example 354, (3R,4R)-1-(1-(2-chlorobenzyl)-5,6-difluoro-1H-benzimidazol-2-yl)-4-fluoro-3-piperidinamine], which IC50 is on record?
**A.** 133 nM

**Q.** How did the IC50 turn out when `COc1ccc2nc(N3CCC(F)(F)[C@H](N)C3)n(Cc3ccc(C#N)cn3)c2c1` [Example 138, 6-((2-((3R)-3-amino-4,4-difluoro-1-piperidinyl)-6-methoxy-1H-benzimidazol-1-yl)methyl)-3-pyridinecarbonitrile] was run?
**A.** 0.52 nM

**Q.** How did the IC50 turn out when `CN(CC(F)(F)F)C(=O)Cn1c(N2CC[C@@H](F)[C@H](N)C2)nc2c(C#N)cc(F)cc21` [Example 447, 2-(2-((3R,4R)-3-amino-4-fluoropiperidin-1-yl)-4-cyano-6-fluoro-1H-benzo[d]imidazol-1-yl)-N-methyl-N-(2,2,2-trifluoroethyl)acetamide] was run?
**A.** 119 nM

**Q.** With `N#Cc1cc(F)cc2c1nc(N1CC[C@H](F)[C@H](N)C1)n2Cc1ncc(Cl)cn1` [Example 149, 2-((3R,4S)-3-amino-4-fluoropiperidin-1-yl)-1-((5-chloropyrimidin-2-yl)methyl)-6-fluoro-1H-benzo[d]imidazole-4-carbonitrile] as the compound, how does the IC50 read?
**A.** 1.09 nM

**Q.** For `N#Cc1ccc2nc(N3CC[C@@H](F)[C@H](N)C3)n(Cc3ccc(F)cn3)c2c1` [Example 190, 2-((3R,4R)-3-amino-4-fluoropiperidin-1-yl)-1-((5-fluoropyridin-2-yl)methyl)-1H-benzo[d]imidazole-6-carbonitrile], which IC50 is on record?
**A.** 4.02 nM

**Q.** With `N#Cc1ccc(Cn2c(N3CCC[C@](N)(C(N)=O)C3)nc3ccccc32)nc1` [Example 103, (R)-3-amino-1-(1-((5-cyanopyridin-2-yl)methyl)-1H-benzo[d]imidazol-2-yl)piperidine-3-carboxamide] as the compound, how does the IC50 read?
**A.** > 3750 nM

**Q.** `CN[C@@H]1CN(c2nc3ccc(F)cc3n2CC(=O)N(C)CC(F)(F)F)CC[C@H]1F` [Example 469, 2-(6-fluoro-2-((3R,4R)-4-fluoro-3-(methylamino)piperidin-1-yl)-1H-benzo[d]imidazol-1-yl)-N-methyl-N-(2,2,2-trifluoroethyl)acetamide] was tested. Which IC50 did it give?
**A.** 190 nM

**Q.** For `COC(=O)C1CCN(C(=O)Cn2c(N3CC[C@@H](F)[C@H](N)C3)nc3cc(F)c(F)cc32)CC1` [Example 512, methyl 1-(2-(2-((3R,4R)-3-amino-4-fluoropiperidin-1-yl)-5,6-difluoro-1H-benzo[d]imidazol-1-yl)acetyl)piperidine-4-carboxylate], which IC50 is on record?
**A.** 162 nM

**Q.** For `N#Cc1ccc(Cn2c(N3CCC(F)(F)[C@H](N)C3)nc3c(C(F)(F)F)cccc32)nc1` [Example 89, (R)-6-((2-(3-amino-4,4-difluoropiperidin-1-yl)-4-(trifluoromethyl)-1H-benzo[d]imidazol-1-yl)methyl)nicotinonitrile], which IC50 is on record?
**A.** 368 nM

**Q.** Which IC50 does the source give for `N#Cc1cc(F)cc2c1nc(N1CC[C@H](F)[C@H](N)C1)n2Cc1ncc(F)cn1` [Example 36, 2-((3R,4S)-3-amino-4-fluoropiperidin-1-yl)-6-fluoro-1-((5-fluoropyrimidin-2-yl)methyl)-1H-benzo[d]imidazole-4-carbonitrile] here?
**A.** 6.13 nM

**Q.** How did the IC50 turn out when `N#Cc1ccc(Cn2c(N3CC[C@@H](F)[C@H](N)C3)nc3c(C#N)cc(F)cc32)nc1` [Example 18, 2-((3R,4R)-3-amino-4-fluoropiperidin-1-yl)-1-((5-cyanopyridin-2-yl)methyl)-6-fluoro-1H-benzo[d]imidazole-4-carbonitrile] was run?
**A.** 7.85 nM

**Q.** How did the IC50 turn out when `N[C@@H]1CN(c2nc3cc(F)ccc3n2Cc2ncc(Cl)cn2)CC[C@H]1O` [Example 206, (3R,4R)-3-amino-1-(1-((5-chloropyrimidin-2-yl)methyl)-5-fluoro-1H-benzo[d]imidazol-2-yl)piperidin-4-ol] was run?
**A.** 12.3 nM

**Q.** Which IC50 does the source give for `C[C@@H](c1ccccc1Cl)n1c(N2CC[C@@H](F)[C@H](N)C2)nc2cc(F)c(F)cc21` [Example 325, (3R,4R)-1-(1-((1S)-1-(2-chlorophenyl)ethyl)-5,6-difluoro-1H-benzimidazol-2-yl)-4-fluoro-3-piperidinamine] here?
**A.** 743 nM

**Q.** Which IC50 does the source give for `N#Cc1ccc2nc(N3CC[C@H](F)[C@H](N)C3)n(Cc3ncc(Cl)cn3)c2c1` [Example 203, 2-((3R,4S)-3-amino-4-fluoropiperidin-1-yl)-1-((5-chloropyrimidin-2-yl)methyl)-1H-benzo[d]imidazole-6-carbonitrile] here?
**A.** 598 nM
